According to patent US11090304B2 (Amgen Inc., priority 2018, dated 2021):
Where two headings read alike, the source gives them in different places.

Legend:
[1] = target: GDP-bound KRAS protein (aa 1-169), containing both G12C and C118A amino acid substitutions (Homo sapiens, UniProt P01116, C118A/G12C); assay: Coupled nucleotide exchange assay (SOS-mediated, AlphaScreen); format: biochemical; conditions: for Coupled exchange IC50 (2 h): 2 h compound pre-incubation; for Coupled exchange IC50 (5 min): 5 min compound pre-incubation
[2] = system: Phosphorylation of ERK1/2 in MIA PaCa-2 cells; assay: Phospho-ERK1/2 MSD assay in MIA PaCa-2 cells; format: cell-based; conditions: Homo sapiens
Procedure, shortened: (§1)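 MIA PaCa-2 or A549 cells were treated with a compound dose-response titration for 2 or 4 h at 37 °C, then stimulated with 10 ng/mL EGF for 10 min. Phospho-ERK1/2 in RIPA lysates was measured by MSD whole-cell lysate immunoassay, and IC50 came from a 4-parameter logistic fit.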

[3] = system: Phosphorylation of ERK1/2 in A549 cells; assay: Phospho-ERK1/2 MSD assay in A549 cells; format: cell-based; conditions: Homo sapiens
Procedure, shortened: as §1

[4] = MIA PaCa-2, 2 h, read-out: p-ERK IC50 (2 h; MIA PaCa-2), 2 h compound treatment
[5] = A549, 2 h, read-out: p-ERK IC50 (2 h; A549), 2 h compound treatment

Chain of GDP-bound KRAS protein (aa 1-169), containing both G12C and C118A amino acid substitutions (P01116 1-169 isoform P01116-2 G12C/C118A): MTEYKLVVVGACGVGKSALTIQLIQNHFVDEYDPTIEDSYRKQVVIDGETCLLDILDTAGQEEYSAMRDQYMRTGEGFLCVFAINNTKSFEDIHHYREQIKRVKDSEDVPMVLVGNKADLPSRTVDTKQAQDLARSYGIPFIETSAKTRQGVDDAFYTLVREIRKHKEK

SMILES	Coupled exchange IC50 (2 h) [1]	IC50 [2, 4] [µM]	IC50 [3, 5] [µM]	Coupled exchange IC50 (5 min) [1]	IC50 ([2]; MIA PaCa-2, 4 h, read-out: p-ERK IC50 (4 h; MIA PaCa-2), 4 h compound treatment) [µM]	IC50 ([3]; A549, 4 h, read-out: p-ERK IC50 (4 h; A549), 4 h compound treatment) [µM]
C=CC(=O)N1CCN(c2nc(=O)n(-c3nccn3C(C)C)c3cc(-c4ccccc4F)c(Cl)cc23)[C@@H](C)C1 [Example 91, 6-Chloro-7-(2-fluorophenyl)-4-((2S)-2-methyl-4-(2-propenoyl)-1-piperazinyl)-1-(1-(2-propanyl)-1H-imidazol-2-yl)-2(1H)-quinazolinone]	–	0.312	≥ 10	0.2 | nda μM	–	–
CC(C)c1ccccc1-n1c(=O)nc(N2CCN(C(=O)/C=C/CN(C)C)CC2)c2cc(Cl)c(-c3c(O)cccc3F)cc21 [Example 92, 6-Chloro-4-(4-((2E)-4-(dimethylamino)-2-butenoyl)-1-piperazinyl)-7-(2-fluoro-6-hydroxyphenyl)-1-(2-(2-propanyl)phenyl)-2(1H)-quinazolinone]	nda | 0.123 μM	–	–	–	1.55	108
C=CC(=O)N1CCN(c2nc(=O)n(-c3ccc(OCCN=[N+]=[N-])cc3C(C)C)c3nc(N4CCCCC4)c(Cl)cc23)[C@@H](C)C1 [Example 117, 1-(4-(2-Azidoethoxy)-2-(2-propanyl)phenyl)-6-chloro-4-((2S)-2-methyl-4-(2-propenoyl)-1-piperazinyl)-7-(1-piperidinyl)pyrido[2,3-d]pyrimidin-2(1H)-one]	nda | 0.916 μM	4.88	≥ 10	–	–	–

Results, then the compound that gave them:

Coupled exchange IC50 (2 h) [1]	IC50 [2, 4] [µM]	IC50 [3, 5] [µM]	Coupled exchange IC50 (5 min) [1]	IC50 ([2]; MIA PaCa-2, 4 h, read-out: p-ERK IC50 (4 h; MIA PaCa-2), 4 h compound treatment) [µM]	IC50 ([3]; A549, 4 h, read-out: p-ERK IC50 (4 h; A549), 4 h compound treatment) [µM]	SMILES
nda | 0.511 μM	1.31	≥ 33.3	–	–	–	C=CC(=O)N1CCN(c2nc(=O)n(-c3ccccc3C(C)C)c3nc(N4CCC4)c(Cl)cc23)[C@@H](C)C1 [Example 69-2, 7-(1-azetidinyl)-6-chloro-4-((2S)-2-methyl-4-(2-propenoyl)-1-piperazinyl)-1-(2-(2-propanyl)phenyl)pyrido[2,3-d]pyrimidin-2(1H)-one]
0.112 µM	1.51	≥ 10	0.781 µM	–	–	C=CC(=O)N1CCN(c2nc(=O)n(-c3c(CC)cccc3CC)c3nc(C4CC4)c(Cl)cc23)[C@@H](C)C1 [Example 94, 6-Chloro-7-cyclopropyl-1-(2,6-diethylphenyl)-4-((2S)-2-methyl-4-(2-propenoyl)-1-piperazinyl)pyrido[2,3-d]pyrimidin-2(1H)-one]
